Experimental data: patent US20100130621A1, “USE OF HYDROXYTYROSOL AS ANTI-AGING AGENT” (DSM IP ASSETS B.V., priority 2007, published 2010)

Tests used:
skeletal muscle = conditions: oral administration of 1 g per day; cited from earlier work
PGC-1α = test: Western blot analysis of PGC-1α protein level in adipocytes; type: cell-based, murine; conditions: 3T3-L1 adipocytes, 1.0 μM; bell-shape effect from 0.1 to 10.0 μM; mean±SE
Method: Murine 3T3-L1 pre-adipocytes (American Type Culture Collection) were cultured in Dulbecco's Modified Eagle's Medium (DMEM) supplemented with 10% fetal bovine serum and allowed to reach confluence. Differentiation of pre-adipocytes was initiated with 1 μM insulin, 0.25 μM dexamethasone and 0.5 mM 3-isobutyl-1-methylxanthine in DMEM, supplemented with 10% fetal bovine serum. After 48 h, the culture medium was replaced with DMEM supplemented with 10% fetal bovine serum and 1 μM insulin. The culture medium was changed every other day with DMEM containing 10% fetal bovine serum. […] After treatment, cells were washed twice with ice-cold PBS, lysed in sample buffer (62.5 mM Tris-Cl pH 6.8, 2% SDS, 5 mM DTT) at room temperature and vortexed. Cell lysates were then boiled for 5 minutes and cleared by centrifugation (13,000 rpm, 10 minutes at 4° C.). Protein concentration was determined using the Bio-Rad DC protein assay. The soluble lysates (10 μg per lane) were subjected to 10% SDS-PAGE, proteins were then transferred to nitrocellulose membranes and blocked with 5% non-fat milk/TBST for 1 h at room temperature. […] Western blots were developed using ECL (Roche Manheim, Germany) and quantified by scanning densitometry.

[1] = test system: mitochondrial electron transport complex I; test: Western blot of mitochondrial electron transport complex I protein in adipocytes; type: cell-based, murine; conditions: 3T3-L1 adipocytes, 48 hrs
Method: Murine 3T3-L1 pre-adipocytes (American Type Culture Collection) were cultured in Dulbecco's Modified Eagle's Medium (DMEM) supplemented with 10% fetal bovine serum and allowed to reach confluence. Differentiation of pre-adipocytes was initiated with 1 μM insulin, 0.25 μM dexamethasone and 0.5 mM 3-isobutyl-1-methylxanthine in DMEM, supplemented with 10% fetal bovine serum. After 48 h, the culture medium was replaced with DMEM supplemented with 10% fetal bovine serum and 1 μM insulin. The culture medium was changed every other day with DMEM containing 10% fetal bovine serum. […] After treatment, cells were washed twice with ice-cold PBS, lysed in sample buffer (62.5 mM Tris-Cl pH 6.8, 2% SDS, 5 mM DTT) at room temperature and vortexed. Cell lysates were then boiled for 5 minutes and cleared by centrifugation (13,000 rpm, 10 minutes at 4° C.). Protein concentration was determined using the Bio-Rad DC protein assay. The soluble lysates (10 μg per lane) were subjected to 10% SDS-PAGE, proteins were then transferred to nitrocellulose membranes and blocked with 5% non-fat milk/TBST for 1 h at room temperature. Membranes were incubated with primary antibodies directed against PPAR-γ (1:1000), PGC-1α (1:1000), α-tubulin (1:10 000), Complex I (1:2000), Complex II (1:2000), Complex III (1:2000) and Complex V (1:2000) in 5% milk/TBST at 4° C. overnight. After washing membranes with TBST three times, membranes were incubated with horseradish peroxidase-conjugated secondary antibody for 1 h at room temperature. Western blots were developed using ECL (Roche Manheim, Germany) and quantified by scanning densitometry.

O=C1O[C@H]([C@@H](O)CO)C(O)=C1O [Vitamin C]
mitochondrial biogenesis in skeletal muscle (skeletal muscle): decreases mitochondrial biogenesis

OCCc1ccc(O)c(O)c1 [hydroxytyrosol, 3,4-dihydroxyphenylethanol]
PGC-1α protein expression (maximum), vs. control (PGC-1α): 205±52% | mitochondrial electron transport complex I protein, vs. control ([1]; 0.1 μM): 131±16% | mitochondrial electron transport complex I protein, vs. control ([1]; 1.0 μM): 163±31% | mitochondrial electron transport complex I protein, vs. control ([1]; 10.0 μM): 138±21%
